US7049331B2, “1,2,4-thiadiazole derivatives as melanocortin receptor modulators” (Ortho-McNeil Pharmaceutical, Inc., priority 2001, dated 2006)

Legend:
[1] = biological target: MC5-R (Homo sapiens, UniProt P33032); assay: MC5-R binding
[2] = test system: human sebocytes; assay: Visual observation of lipid granule formation in sebocytes; format: cell-based
Procedure: Semiconfluent cultures of 3T3 mouse fibroblasts (Swiss Albino mouse, ATCC CCL-92) were treated with mitomycin C (4 μg/ml) for 3 hours, trypsinized and seeded at a density of 2.5×10^5/9.5 cm^2 tissue culture plate in Dulbeccos Minimal Essential Medium (DMEM) containing 10% Colorado Calf Serum, PNC (100U/ml), STM (100 μg/ml), L glutamine (0.3 mg/ml), sodium pyruvate (1 mM) and nonessential amino acids (100 μM). The cells were incubated at 37° C. for 24 hours prior to their use as a feeder layer for sebocytes.
Human sebocytes were isolated from Dermatome shavings of postoperative pieces of human skin at 0.4–0.8 mm depths (this part of the skin was previously shown to be enriched in sebaceous glands). Shavings so obtained were treated with 1% Dispase in Iscoves medium containing 10% serum for 20 min at 37° C. The tissue was then placed in 0.3% trypsin/1% EDTA in Phosphate Buffered Saline (PBS) for 10 minutes at 37° C. Following this incubation the cells were gently scraped from the tissue in Growth medium (GM) containing DMEM/F12 media mixture (3:1), supplemented with 8% heat inactivated FBS, 2% heat inactivated human serum (HS), 1 mM sodium pyruvate, epidermal growth factor (10 ng/ml), insulin (10 μg/ml), hydrocortisone (0.4 μg/ml) and +/−cholera toxin (100 μg/ml), L-glutamine and antibiotics. Cells so obtained were filtered through nylon mesh ([…]), centrifuged at 750 RPM, re-suspended in GM and counted.
Resultant cells from the above isolation procedure were plated on the 3T3 feeder layers at 2×10^5/9.5 cm^2 in growth medium and maintained at 37° C. and 5% CO2 for 3 days (Phase I). Following the initial growth period they were transferred to a transition medium (TM) that consisted of DMEM/F12 media supplemented with 1 mM sodium pyruvate, insulin ([…]), transferrin ([…]) and selenium (5.5 μg/ml) (ITS), 2% heat inactivated FBS and 2% heat inactivated human serum as well as +/−cholera toxin (ch.t.) (100 μg/ml), L-glutamine and antibiotics (Phase II). Three days later the cells were changed to differentiation medium (DM), DMEM/F12 supplemented with ITS, 3,3′,5-triido-L-thyronine sodium (3 nM), 1%(v/v) trace element mix and the choice of differentiation agent i.e. bovine pituitary extract (10 μg/ml). This medium was changed every 3 days (Phase III).
Hormones, mixture of hormones i.e. bovine pituitary extract or compounds to be tested were added to the culture at the beginning of phase III. Two criteria were used to evaluate the effect of these materials on sebaceous cultures: 1) visual observations and 2) evaluation of sebaceous lipid accumulation and synthesis. The evaluation of lipid accumulation completed using the Nile red method. This method relies on visualization of neutral lipids by Nile red and quantitation by reading of fluorescence at 535 nm excitation, 580 nm emission using a plate reader. The lipid synthesis was evaluated by radioactive labeling using ^14C acetate and quantified by Bio Rad Phosphoimager (Molecular Imager, FX) using 4.1 Software.
Quantitation of accumulation/inhibition of neutral lipids in sebocytes was accomplished by Nile red binding assay. Briefly, following exposure of sebocytes to test compounds, the cells were allowed to interact with 1 μM Nile red in Hanks buffered saline solution containing DMSO and Pluronic F127. After 4 hours of incubation, washing and incubation overnight, the fluorescence was read at 535 excitation and 580 emission using a fluorescence plate reader.
Following the procedure described above, select compounds of the present invention were tested for visual and Nile red evaluation of lipid accumulation, with results as listed in Table 9.
Following the procedure described above, select compounds of the present invention were tested for their inhibitory effect on differentiation of human sebocytes. […]

[3] = test system: human sebocytes; assay: Nile red evaluation of lipid accumulation in sebocytes; format: cell-based; settings: for inhibition at 0.4 µM: read-out: % Inh 0.4 μM (lipid accumulation, Nile red); for inhibition at 0.8 µM: read-out: % Inh 0.8 μM (lipid accumulation, Nile red)
Procedure: The cells were incubated at 37° C. for 24 hours prior to their use as a feeder layer for sebocytes. Human sebocytes were isolated from Dermatome shavings of postoperative pieces of human skin at 0.4-0.8 mm depths (this part of the skin was previously shown to be enriched in sebaceous glands). […] This medium was changed every 3 days (Phase III). Hormones, mixture of hormones i.e. bovine pituitary extract or compounds to be tested were added to the culture at the beginning of phase III. […] The evaluation of lipid accumulation completed using the Nile red method. This method relies on visualization of neutral lipids by Nile red and quantitation by reading of fluorescence at 535 nm excitation, 580 nm emission using a plate reader. The lipid synthesis was evaluated by radioactive labeling using ^14C acetate and quantified by Bio Rad Phosphoimager (Molecular Imager, FX) using 4.1 Software. […] Quantitation of accumulation/inhibition of neutral lipids in sebocytes was accomplished by Nile red binding assay. Briefly, following exposure of sebocytes to test compounds, the cells were allowed to interact with 1 μM Nile red in Hanks buffered saline solution containing DMSO and Pluronic F127. After 4 hours of incubation, washing and incubation overnight, the fluorescence was read at 535 excitation and 580 emission using a fluorescence plate reader. […] Following the procedure described above, select compounds of the present invention were tested for visual and Nile red evaluation of lipid accumulation, with results as listed in Table 9.

[4] = biological target: T1, melanocortin MC-4 receptor (Homo sapiens, UniProt P32245); assay: Melanocortin MC-4 Receptor Binding Assay (SPA)
T1 construct: purchased Receptor Biology Inc
Method in brief: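 Membranes bound to WGA SPA beads were incubated 16 h at 25° C with 40 pM ¹²⁵I-NDP-MSH and test compound (1 mM stock in 30% DMSO-HEPES pH 7.4). Nonspecific binding set with 1 μM NDP-MSH or α-MSH; percent inhibition from bound cpm.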

Chain of MC5-R (P33032 whole entry): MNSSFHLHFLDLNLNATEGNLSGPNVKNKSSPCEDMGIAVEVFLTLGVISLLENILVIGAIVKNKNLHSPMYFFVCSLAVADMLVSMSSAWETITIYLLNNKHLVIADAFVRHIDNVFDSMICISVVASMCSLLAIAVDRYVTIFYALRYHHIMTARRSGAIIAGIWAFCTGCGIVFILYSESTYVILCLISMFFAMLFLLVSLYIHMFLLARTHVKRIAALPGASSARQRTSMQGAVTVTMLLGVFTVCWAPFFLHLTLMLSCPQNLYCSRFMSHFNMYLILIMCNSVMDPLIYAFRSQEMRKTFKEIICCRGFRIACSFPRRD
T1 sequence (P32245 whole entry): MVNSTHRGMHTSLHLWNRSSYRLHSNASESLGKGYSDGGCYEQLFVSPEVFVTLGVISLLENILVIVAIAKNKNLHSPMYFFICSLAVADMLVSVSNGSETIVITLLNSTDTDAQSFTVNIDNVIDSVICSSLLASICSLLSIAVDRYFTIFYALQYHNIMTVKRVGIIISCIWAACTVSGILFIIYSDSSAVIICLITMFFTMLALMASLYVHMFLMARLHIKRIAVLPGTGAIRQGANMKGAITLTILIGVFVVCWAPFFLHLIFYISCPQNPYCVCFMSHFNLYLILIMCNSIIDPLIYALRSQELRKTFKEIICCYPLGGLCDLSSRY

SMILES	MC5-R IC50 [1]	Visual* 0.4 μM (inhibition of lipid granule formation) [2]	Visual* 0.8 μM (inhibition of lipid granule formation) [2]	inhibition at 0.4 µM [3]	inhibition at 0.8 µM [3]	IC50 [4]	IC50 [1]	lipid granules in sebocyte cultures (visual, stained cultures) ([2]; seven day treatment)
c1ccc(CNc2nc(-c3ccccc3)[n+](-c3ccccc3)s2)cc1 [Compound 84]	No binding	0	0	0%	0%			
COc1ccccc1-[n+]1sc(Nc2ccc(C)cc2)nc1-c1ccccc1.[Br-] [Compound 31, 2-(2-methoxyphenyl)-3-phenyl-5-p-tolylamino-[1,2,4]thiadiazol-2-ium]						22 nM		
COc1ccccc1-c1nc(Nc2ccccc2)s[n+]1-c1ccccc1OC.[Br-] [Compound 74, 2-(2-methoxyphenyl)-3-(2-methoxyphenyl)-5-phenylamino-[1,2.4]thiadiazol-2-ium]		+++ (+++ = 75%)	++++ (++++ = 100%)	72%	100%	194 nM	154 nM	complete disappearance of lipid granules
COc1ccc(N(C)c2nc(-c3ccccc3)[n+](-c3ccc(C)cc3)s2)cc1 [Compound 50]	No binding	0	0	0%	0%	30000 nM		
